Reference: patent publication US20250375419A1, “NOVEL RAS INHIBITORS” (KHR Biotec GmbH, priority 2022, published 2025)

Assays:
Type in all cases: cell-based
KRAS dependent cells = assay: MTT assay for cell viability, KRAS dependent cells (FIG. 3a); details: irrespective of the presence of mutation, 48 h
Description: (§1) FIGS. 3a) und 3b): MTT assay for cell viability in 96 well cell culture plate Cells were treated with compounds for 48 h and cell viability was evaluated by MTT assay. The results shown are mean from 3 independent experiments. DMSO-treated cells were set as 1. The results shown are mean±SEM from 1-3 independent experiments.
(§2) G12C/Y96D mutation is normally seen in patients, who develop resistance to G12C inhibitor. Thus, patients, who are resistant to G12C inhibitors can still be treated with Tegaserode maleate.

BaF3 KRAS G12C/Y96D = assay: MTT assay for cell viability in 96 well cell culture plate; details: Mus musculus, 48 h treatment
Description: (§3) Metabolic activity was quantified using Cell Proliferation Kit I (Roche, Basel, Switzerland). Cells were seeded in 96-well cell culture plates, using 5000 cells per well for NCI-H358 cells. After treatment, 10 μl of MTT solution was added and incubated for 2 h in CO2 incubator. Then 100 μl of solubilization buffer was added to each well and incubated overnight in CO2 incubator. Cell viability, assessed by the amount of metabolized MTT, was quantified by measuring absorbance at 570 nm.
as §1, §2

BaF3 KRAS G12C = assay: as above; details: Mus musculus, 48 h treatment
Description: as §3, §1, §2

HT1080 = assay: Soft agar colony formation assay, colonies stained with MTT; details: Homo sapiens, HT-1080; HT1080, growth in soft agar, MTT absorbance 570 nm, 3 independent experiments
Description: as §3
(§4) MTT assay for the growth of different tumour cell lines with RAS mutations in soft agar with Tegaserode maleate.
(§5) NCI-H358, H358, H2122, ASPC-1, HCT-116, T24 and HT1080 cells were used for the soft agar colony formation assay. After the treatment with Tegaserode maleate, the colonies were stained with MTT and the value was quantified by measuring absorbance at 570 nm after solubilization. The results represent mean±SEM from 3 independent experiments.

NCI-H2122 = assay: as above; details: Homo sapiens; NCI-H2122, growth in soft agar, MTT absorbance 570 nm, 3 independent experiments
Description: as §3, §4, §5

HCT-116 = assay: as above; details: Homo sapiens; HCT-116, growth in soft agar, MTT absorbance 570 nm, 3 independent experiments
Description: as §3, §4, §5

NCI-H358 = assay: as above; details: Homo sapiens; NCI-H358, growth in soft agar, MTT absorbance 570 nm, 3 independent experiments
Description: as §3, §4, §5

T24 = assay: as above; details: Homo sapiens, T-24; T24, growth in soft agar, MTT absorbance 570 nm, 3 independent experiments
Description: as §3, §4, §5

ASPC1 = assay: as above; details: Homo sapiens; ASPC1, growth in soft agar, MTT absorbance 570 nm, 3 independent experiments
Description: as §3, §4, §5

[1] = tested on: RAS protein of RASOpathie; assay: RASOpathie-Model; MTT assay for cell viability in 96 well cell culture plate; details: 48 h treatment
Description: FIG. 4: RASOpathie-Model of Tegaserode maleate; MTT assay for cell viability in 96 well cell culture plate
Cells were treated with Tegaserode maleate for 48 h and cell viability was evaluated by MTT assay. DMSO-treated cells were set as 1. The results shown are mean±SEM from 3 independent experiments.

Question: For `CCCCCNC(=N)N/N=C/c1c[nH]c2ccc(OC)cc12.O=C(O)/C=C\C(=O)O` [Tegaserode maleate, 2-[(5-Methoxy-1H-indol-3-yl)methylene]-N-pentyl-hydrazinecarboximidamide maleate], which “inhibition of KRAS dependent cells” value (KRAS dependent cells) is on record?
Answer: inhibits KRAS dependent cells irrespective of the presence of mutation

Question: And the IC50 (BaF3 KRAS G12C/Y96D)?
Answer: 2.86 µM

Question: What about the IC50 (BaF3 KRAS G12C) of the same compound?
Answer: 10.2 µM

Question: What about the IC50 (HT1080) of the same compound?
Answer: 2.43 µM

Question: And the IC50 (NCI-H2122)?
Answer: 3.37 µM

Question: And the IC50 (HCT-116)?
Answer: 3.12 µM

Question: And the IC50 (NCI-H358)?
Answer: 5.39 µM

Question: And the IC50 (T24)?
Answer: 11.3 µM

Question: And the IC50 (ASPC1)?
Answer: 4.76 µM

Question: What about the “inhibition of RAS protein of RASOpathie (cell viability)” value [1] of the same compound?
Answer: inhibits RAS protein of RASOpathie
